# Assay results as given in patent US20050137242A1, “Betamimetics having a long-lasting activity, processes for preparing them, and their use as medicaments” (Boehringer Ingelheim Pharma GmbH & Co. KG, priority 2000, published 2005).
# Where a name gives a salt, the structure may show the parent alone.
row,melting point [°C],SMILES
1,202 to 205,"COc1ccc(CC(C)(C)NCC(O)c2ccc(O)c3c2OCC(=O)N3)cc1 (stereo not shown) (as salt: hydrochloride) [Example 4, 1-[2H-5-hydroxy-3-oxo-4H-1,4-benzoxazin-8-yl]-2-[3-(4-methoxyphenyl)-2-methyl-2-propylamino]ethanol]"
2,175 to 179,"COc1ccc(-c2ncn(CCC(C)(C)NCC(O)c3ccc(O)c4c3OCC(=O)N4)n2)cc1 (stereo not shown) (as salt: hydrochloride) [Example 5, 1-[2H-5-hydroxy-3-oxo-4H-1,4-benzoxazin-8-yl]-2-{4-[3-(4-methoxyphenyl)-1,2,4-triazol-3-yl]-2-methyl-2-butylamino}ethanol]"
3,189 to 190,"CCCCOc1ccc(CC(C)(C)NCC(O)c2ccc(O)c3c2OCC(=O)N3)cc1 (stereo not shown) (as salt: methanesulfonate) [Example 2, 1-[2H-5-hydroxy-3-oxo-4H-1,4-benzoxazin-8-yl]-2-[3-(4-n-butyloxyphenyl)-2-methyl-2-propylamino]ethanol]"
4,154 to 155,"COc1ccc(CNc2cc(C(O)CNC(C)(C)CCn3cnc4ccccc43)ccc2O)cc1 (stereo not shown) (as salt: acetate) [Example 3, 1-[3-(4-methoxybenzylamino)-4-hydroxyphenyl]-2-[4-(1-benzimidazolyl)-2-methyl-2-butylamino]ethanol]"
